Data from EP0386951A2 (ELI LILLY AND COMPANY, priority 1989, dated 1990).

Assays:
[1] = Stability of daptomycin reconstituted to 1 mg/ml in normal saline or 5% dextrose, stored at room and refrigerated temperature; assay type: physicochemical; conditions: solutions of daptomycin and dextrose, 24 h
Description: Next, the solutions were stored at room temperature (approximately 25°C) and refrigerated temperatures and assayed at the 6 h and 24 h timepoints.

[2] = Stability of daptomycin reconstituted in buffered diluents and diluted in 5% dextrose (appearance of degradation products); assay type: physicochemical; conditions: dissolved in 5% dextrose solution
Source text: The effectiveness of the buffered diluents in suppressing the appearance of degradation products is shown below in Table 2: Table 2: […]

Q: Which results are given for daptomycin?
A: potency loss ([1]; refrigerated temperature): about 5%; potency loss ([1]; room temperature): 17%; degradation ([2]; 24 h at 25°C): 15-20%; degradation ([2]; 7 days at 5°C): 15-20%
